Assay results reported in US5270302A, “Derivatives of tetrapeptides as CCK agonists” (priority 1991, dated 1993).
*1 amine or outer side, *2 acyl side, *3 side chain or, on linkers, in order; H or OH if unused. Where a SMILES comes first, the peptide text is derived from it. Side-chain parts run from the residue outwards. [ ]: non-standard residue; d: D form. The star is where a group is joined. 2Naphthoyl(6-OH) = O=C(c1ccc2cc(O)ccc2c1)*; Desaminotyrosyl = O=C(CCc1ccc(O)cc1)*; NH(1-naphthyl) = c1ccc2c(N*)cccc2c1; NMeF = CN[C@@H](Cc1ccccc1)C(=O)O; X11 = O=C(C=Cc1ccc(Cl)c(Cl)c1)*; NMeD = CN[C@@H](CC(=O)O)C(=O)O; NH(2-Me-phenyl) = Cc1ccccc1N*; X18 = O=C(/C=C/c1ccc(Cl)cc1)*; X14 = O=[N+]([O-])c1ccccc1N*; X8 = O=C(C=Cc1ccc(O)c(O)c1)*; X7 = Cc1ccc(/C=C/C(=O)*)cc1; X13 = O=C(C=Cc1ccc(F)cc1)*; X21 = O=C(C=Cc1cccc(O)c1)*; X1 = O=C(C=Cc1ccc(O)cc1)*; 3Abz = Nc1cccc(C(=O)O)c1; 2Abz = Nc1ccccc1C(=O)O; X26 = Clc1cccc(Cl)c1N*; Boc = CC(C)(C)OC(=O)*; CO = O=C([*:1])[*:2]; X16 = COc1ccccc1N*; X19 = Brc1ccccc1N*

molecular target: T1, Type-A CCK receptor (Cavia porcellus, UniProt Q63931); assay: Radioligand binding of [125I]BH-CCK-8 in guinea pig pancreatic membrane preparations; settings: not given
T1 construct: Cortical and pancreatic membranes were prepared as described; from tissue; host or cells: guinea pig pancreas membranes
T1 sequence (Q63931 1-430): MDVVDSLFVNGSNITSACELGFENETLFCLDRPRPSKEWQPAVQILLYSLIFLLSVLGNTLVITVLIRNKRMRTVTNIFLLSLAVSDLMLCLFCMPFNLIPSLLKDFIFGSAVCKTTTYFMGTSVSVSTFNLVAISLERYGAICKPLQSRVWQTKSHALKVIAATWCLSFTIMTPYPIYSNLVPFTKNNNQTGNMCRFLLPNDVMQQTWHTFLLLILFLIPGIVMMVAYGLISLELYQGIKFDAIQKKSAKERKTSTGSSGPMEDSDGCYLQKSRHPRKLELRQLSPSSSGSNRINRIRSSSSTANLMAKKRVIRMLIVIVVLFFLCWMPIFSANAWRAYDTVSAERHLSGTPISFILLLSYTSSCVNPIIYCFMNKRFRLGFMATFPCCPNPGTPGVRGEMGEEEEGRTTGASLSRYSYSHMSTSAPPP
Description: (§1) CCK-8 [Asp-Tyr(SO3 H)-Met-Gly-Trp-Met-Asp-PheNH2 ], bestatin and phosphoramidion were purchased from Peptide International (Louisville, Ky.). EGTA (ethylene glycol-bis-(β-aminoethyl) N,N,N',N'-tetraacetic acid), HEPES (4-(2-hydroxyethyl)-1-piperazine-enthanesulfonic acid) and BSA (bovine serum albumin) were purchased from Sigma Chemical Co. (St. Louis, Mo.). [^125 I]-Bolton-Hunteer (BH-CCK-8) (specific activity, 2200 Ci/mmol) was obtained from New England Nuclear (Boston, Mass.). Male guinea pigs, 250 to 325 g, were obtained from Scientific Small Animal Laboratory and Farm (Arlington Heights, Ill.). Collagenase, code CLSPA was purchased from Worthington (Frehold, N.J.).
(§2) Protocol For Radioligand Binding Experiments in Guinea Pig Cerebral Cortical and Pancreatic Membrane Preparations
(§3) Cortical and pancreatic membranes were prepared as described (Lin and Miller; J. Pharmacol. Exp. Ther. 1985, 232:775-780,). In brief, cortex and pancreas were removed and rinsed with ice-cold saline. Visible fat and connective tissues were removed from the pancreas. […] The homogenates were entrifuged for 10 minutes at 1075×g and pellets were discarded. The supernatants were saved and centrifuged at 38,730×g for 20 minutes. The resultant pellets were rehomogenized in 25 mL of 50 mM Tris-HCl buffer with a Teflon-glass homogenizer, 5 up and down strokes. The homogenates were centrifuged again at 38,730×g for 20 minutes. Pellets werre then resuspended in 20 mM HEPES, containing 1 mM EGTA, 118 mM NaCl, 4.7 mM KCl, 5 mM MgCl2, 100 μM bestatin, 3 μM phosphoramidon, pH 7.4 at 22° C. with a Teflon-glass homogenizer, 15 up and down strokes. Resuspension volume for the cortex was 15-18 mL per gram of original wet weight and 60 mL per gram for the pancreas.
(§4) [^125 I]Bolton-Hunter CCK-8 and test compounds were diluted with HEPES-EGTA-salt buffer (see above) containing 0.5% BSA. To 1 mL Skatron polystyrene tubes were added 25 μL of test compounds, 25 μL of [^125 I]BH-CCK-8 and 200 μL of membrane suspension. The final BSA concentration was 0.1%. The cortical tissues were incubated at 30° C. for 150 minutes and pancreatic tissues were incubated at 37° C. for 150 min. Incubations were terminated by filtration using Skatron Cell Harvester and SS32 microfiber filter mats. […] IC50 s were determined from the Hill analysis.

SMILES | IC50 [nM]
Cc1ccccc1NC(=O)NCCCC[C@H](NC(=O)[C@H](Cc1c[nH]c2ccccc12)NC(=O)OC(C)(C)C)C(=O)N(C)[C@@H](CC(=O)O)C(=O)N[C@@H](Cc1ccccc1)C(N)=O [Example 60, t-BOC-Trp-Lys(ε-N-(2-methylphenyl)aminocarbonyl)-(NMe)Asp-PheNH2] (Boc-WK([CO-NH(2-Me-phenyl)])[NMeD]F-NH2) | 4.3
Cc1ccc(/C=C/C(=O)NCCCC[C@H](NC(=O)[C@H](Cc2c[nH]c3ccccc23)NC(=O)OC(C)(C)C)C(=O)N[C@@H](CC(=O)O)C(=O)N[C@@H](Cc2ccccc2)C(N)=O)cc1 [Example 6, t-BOC-Trp-Lys(ε-N-(4-methylcinnamoyl))-Asp-PheNH2] (Boc-WK(X7)DF-NH2) | 71
CC(C)(C)OC(=O)N[C@@H](Cc1c[nH]c2ccccc12)C(=O)N[C@@H](CCCCNC(=O)C=Cc1ccc(F)cc1)C(=O)N[C@@H](CC(=O)O)C(=O)N[C@@H](Cc1ccccc1)C(N)=O [Example 7, t-BOC-Trp-Lys(ε-N-(4-fluorocinnamoyl))-Asp-PheNH2] (Boc-WK(X13)DF-NH2) | 65
CC(C)(C)OC(=O)N[C@@H](Cc1c[nH]c2ccccc12)C(=O)N[C@@H](CCCCNC(=O)Nc1ccccc1[N+](=O)[O-])C(=O)N[C@@H](CC(=O)O)C(=O)N[C@@H](Cc1ccccc1)C(N)=O [Example 34, t-BOC-Trp-Lys(ε-N-(2-nitrophenyl)aminocarbonyl)-Asp-PheNH2] (Boc-WK([CO-X14])DF-NH2) | 23
CC(C)(C)OC(=O)N[C@@H](Cc1c[nH]c2ccccc12)C(=O)N[C@@H](CCCCNC(=O)C=Cc1ccc(Cl)c(Cl)c1)C(=O)N[C@@H](CC(=O)O)C(=O)N[C@@H](Cc1ccccc1)C(N)=O [Example 15, t-BOC-Trp-Lys(ε-N-(3,4-dichlorocinnamoyl))-Asp-PheNH2] (Boc-WK(X11)DF-NH2) | 65
Cc1ccccc1/N=C(/S)NCCCC[C@H](NC(=O)[C@H](Cc1c[nH]c2ccccc12)NC(=O)OC(C)(C)C)C(=O)N[C@@H](CC(=O)O)C(=O)N[C@@H](Cc1ccccc1)C(N)=O [Example 38, t-BOC-Trp-Lys(ε-N-(2-methylphenyl)aminothiocarbonyl)-Asp-PheNH2] | 230
CC(C)(C)OC(=O)N[C@@H](Cc1c[nH]c2ccccc12)C(=O)N[C@@H](CCCCNC(=O)Nc1ccccc1Br)C(=O)N[C@@H](CC(=O)O)C(=O)N[C@@H](Cc1ccccc1)C(N)=O [Example 36, t-BOC-Trp-Lys(ε-N-(2-bromophenyl)aminocarbonyl)-Asp-PheNH2] (Boc-WK([CO-X19])DF-NH2) | 7
CN(C(=O)[C@H](CC(=O)O)NC(=O)[C@H](CCCCNC(=O)/C=C/c1ccc(Cl)cc1)NC(=O)[C@H](Cc1c[nH]c2ccccc12)NC(=O)OC(C)(C)C)[C@@H](Cc1ccccc1)C(N)=O [Example 18, t-BOC-Trp-Lys(ε-N-(4-chlorocinnamoyl))-Asp-(NMe)PheNH2] (Boc-WK(X18)D[NMeF]-NH2) | 22
CC(C)(C)OC(=O)N[C@@H](Cc1c[nH]c2ccccc12)C(=O)N[C@@H](CCCCNC(=O)CCc1ccc(O)cc1)C(=O)N[C@@H](CC(=O)O)C(=O)N[C@@H](Cc1ccccc1)C(N)=O [Example 1, t-BOC-Trp-Lys(ε-N-(3-(4-hydroxyphenyl)propionyl))-Asp-PheNH2] (Boc-WK(Desaminotyrosyl)DF-NH2) | 124
CC(C)(C)OC(=O)N[C@@H](Cc1c[nH]c2ccccc12)C(=O)N[C@@H](CCCCNC(=O)C=Cc1ccc(O)c(O)c1)C(=O)N[C@@H](CC(=O)O)C(=O)N[C@@H](Cc1ccccc1)C(N)=O [Example 14, t-BOC-Trp-Lys(ε-N-(3,4-dihydroxycinnamoyl))-Asp-PheNH2] (Boc-WK(X8)DF-NH2) | 33
CC(C)(C)OC(=O)N[C@@H](Cc1c[nH]c2ccccc12)C(=O)N[C@@H](CCCCNC(=O)C=Cc1cccc(O)c1)C(=O)N[C@@H](CC(=O)O)C(=O)N[C@@H](Cc1ccccc1)C(N)=O [Example 5, t-BOC-Trp-Lys(ε-N-(3-hydroxycinnamoyl))-Asp-PheNH2] (Boc-WK(X21)DF-NH2) | 37

same assay, conditions: guinea pig pancreatic membranes, 37° C., 150 min; read-out: IC50 (nM) 125I-BH-CCK-8 Type-A receptor

SMILES | IC50 [nM]
COc1ccccc1NC(=O)NCCCC[C@H](NC(=O)[C@H](Cc1c[nH]c2ccccc12)NC(=O)OC(C)(C)C)C(=O)N[C@@H](CC(=O)O)C(=O)N[C@@H](Cc1ccccc1)C(N)=O [Example 43, t-BOC-Trp-Lys(ε-N-(2-methoxyphenyl)aminocarbonyl)-Asp-PheNH2] (Boc-WK([CO-X16])DF-NH2) | 23
CN(C(=O)[C@H](CC(=O)O)NC(=O)[C@H](CCCCNC(=O)C=Cc1ccc(O)cc1)NC(=O)[C@H](Cc1c[nH]c2ccccc12)NC(=O)OC(C)(C)C)[C@@H](Cc1ccccc1)C(N)=O [Example 17, t-BOC-Trp-Lys(ε-N-(4-hydroxycinnamoyl))-Asp-(NMe)PheNH2] (Boc-WK(X1)D[NMeF]-NH2) | 7

molecular target: T2, Type-B CCK receptor (Cavia porcellus, UniProt H0VZC5); assay: Radioligand binding of [125I]BH-CCK-8 in guinea pig cerebral cortical membrane preparations; settings: not given
T2 construct: Cortical and pancreatic membranes were prepared as described; from tissue; host or cells: guinea pig cerebral cortex membranes
T2 sequence (H0VZC5 1-426): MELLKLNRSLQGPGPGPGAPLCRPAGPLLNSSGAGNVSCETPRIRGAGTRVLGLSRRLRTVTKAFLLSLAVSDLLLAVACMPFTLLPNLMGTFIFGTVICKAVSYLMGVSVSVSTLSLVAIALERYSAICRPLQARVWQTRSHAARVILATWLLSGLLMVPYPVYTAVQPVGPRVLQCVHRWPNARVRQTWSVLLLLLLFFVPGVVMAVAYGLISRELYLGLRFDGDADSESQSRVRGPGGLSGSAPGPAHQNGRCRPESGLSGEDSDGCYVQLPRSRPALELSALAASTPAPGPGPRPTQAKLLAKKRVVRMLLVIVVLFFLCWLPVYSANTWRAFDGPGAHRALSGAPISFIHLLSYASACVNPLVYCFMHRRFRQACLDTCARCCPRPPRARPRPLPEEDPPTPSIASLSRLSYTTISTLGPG
Description: as §1, §2, §3, §4

SMILES | IC50 [nM]
COC(=O)c1ccccc1NC(=O)NCCCC[C@H](NC(=O)[C@H](Cc1c[nH]c2ccccc12)NC(=O)OC(C)(C)C)C(=O)N[C@@H](CC(=O)O)C(=O)N[C@@H](Cc1ccccc1)C(N)=O [Example 45, t-BOC-Trp-Lys(ε-N-(2-(methoxycarbonyl)phenyl)aminocarbonyl)-Asp-PheNH2] (Boc-WK([CO-2Abz-OMe])DF-NH2) | 3000
CC(C)(C)OC(=O)N[C@@H](Cc1c[nH]c2ccccc12)C(=O)N[C@@H](CCCCNC(=O)Nc1cccc2ccccc12)C(=O)N[C@@H](CC(=O)O)C(=O)N[C@@H](Cc1ccccc1)C(N)=O [Example 28, t-BOC-Trp-Lys(ε-N-(α-naphthyl)aminocarbonyl)-Asp-PheNH2] (Boc-WK([CO-NH(1-naphthyl)])DF-NH2) | 10000

same assay, conditions: guinea pig cortical membranes, 30° C., 150 minutes; read-out: IC50 (nM) 125I-BH-CCK-8 Type-B receptor

IC50 [nM] | SMILES
2900 | CC(C)(C)OC(=O)N[C@@H](Cc1c[nH]c2ccccc12)C(=O)N[C@@H](CCCC/N=C(\S)Nc1ccccc1Cl)C(=O)N[C@@H](CC(=O)O)C(=O)N[C@@H](Cc1ccccc1)C(N)=O [Example 37, t-BOC-Trp-Lys(ε-N-(2-chlorophenyl)aminothiocarbonyl)-Asp-PheNH2]
1400 | COC(=O)c1cccc(NC(=O)NCCCC[C@H](NC(=O)[C@H](Cc2c[nH]c3ccccc23)NC(=O)OC(C)(C)C)C(=O)N[C@@H](CC(=O)O)C(=O)N[C@@H](Cc2ccccc2)C(N)=O)c1 [Example 46, t-BOC-Trp-Lys(ε-N-(3-(methoxycarbonyl)phenyl)aminocarbonyl)-Asp-PheNH2] (Boc-WK([CO-3Abz-OMe])DF-NH2)
730 | CN(C(=O)[C@H](CC(=O)O)NC(=O)[C@H](CCCCNC(=O)c1ccc2cc(O)ccc2c1)NC(=O)[C@H](Cc1c[nH]c2ccccc12)NC(=O)OC(C)(C)C)[C@@H](Cc1ccccc1)C(N)=O [Example 19, t-BOC-Trp-Lys(ε-N-(6-hydroxy-β-naphthoyl))-Asp-(NMe)PheNH2] (Boc-WK(2Naphthoyl(6-OH))D[NMeF]-NH2)

SMILES | IC50 [nM]
CC(C)(C)OC(=O)N[C@@H](Cc1c[nH]c2ccccc12)C(=O)N[C@@H](CCCCNC(=O)Nc1c(Cl)cccc1Cl)C(=O)N[C@@H](CC(=O)O)C(=O)N[C@@H](Cc1ccccc1)C(N)=O [Example 47, t-BOC-Trp-Lys(ε-N-(2,6-dichlorophenyl)aminocarbonyl)-Asp-PheNH2] (Boc-WK([CO-X26])DF-NH2) | 7000
